Data: ChEMBL document CHEMBL2417443, “Efficient synthesis and antiproliferative activity of novel thioether-substituted flavonoids” (Eur J Med Chem, 2013)
pIC50: −log10 of the molar value.

Tests used:
MCF7 [1] = assay: Cytotoxicity against human MCF7 cells after 72 hrs by MTT assay; type: functional, cell-based; conditions: MCF7, 72 h
[2] = Cytotoxicity against human MDA-MB-435S cells after 72 hrs by MTT assay; type: functional, cell-based
SW480 [3] = assay: Cytotoxicity against human SW480 cells after 72 hrs by MTT assay; type: functional, cell-based; conditions: SW480, 72 h
[4] = Ratio of 5-fluorouracil IC50 to compound IC50 for human LM7 cells; type: functional
SW480 [5] = assay: Ratio of 5-fluorouracil IC50 to compound IC50 for human SW480 cells; type: functional
HeLa [6] = assay: Ratio of 5-fluorouracil IC50 to compound IC50 for human HeLa cells; type: functional
HEp-2 [7] = assay: Ratio of 5-fluorouracil IC50 to compound IC50 for human Hep2 cells; type: functional
HeLa [8] = assay: Cytotoxicity against human HeLa cells after 72 hrs by MTT assay; type: functional, cell-based
[9] = Ratio of 5-fluorouracil IC50 to compound IC50 for human MDA-MB-435S cells; type: functional
HEp-2 [10] = assay: Cytotoxicity against human Hep2 cells after 72 hrs by MTT assay; type: functional, cell-based; conditions: HEp-2, 72 h
[11] = Cytotoxicity against human LM7 cells after 72 hrs by MTT assay; type: functional, cell-based; conditions: LM7, 72 h
MCF7 [12] = assay: Ratio of 5-fluorouracil IC50 to compound IC50 for human MCF7 cells; type: functional
SW480 [13] = assay: Cell cycle arrest in human SW480 cells assessed as accumulation at S phase at 1 uM after 48 hrs by propidium iodide staining-based flow cytometry (reference value: 14.01 +/- 0.86%); type: functional
SW480 [14] = assay: Cell cycle arrest in human SW480 cells assessed as accumulation at G2/M phase after 48 hrs by propidium iodide staining-based flow cytometry; type: functional
SW480 [15] = assay: Cell cycle arrest in human SW480 cells assessed as accumulation at G0/G1 phase at 0.8 uM after 48 hrs by propidium iodide staining-based flow cytometry (reference value: 72.00 +/- 4.30%); type: functional
SW480 [16] = assay: Cell cycle arrest in human SW480 cells assessed as accumulation at G0/G1 phase at 1 uM after 48 hrs by propidium iodide staining-based flow cytometry (reference value: 72.00 +/- 4.30%); type: functional
SW480 [17] = assay: Cell cycle arrest in human SW480 cells assessed as accumulation at G2/M phase at 1 uM after 48 hrs by propidium iodide staining-based flow cytometry (reference value: 13.99 +/- 0.35%); type: functional
SW480 [18] = assay: Cell cycle arrest in human SW480 cells assessed as accumulation at S phase at 1.2 uM after 48 hrs by propidium iodide staining-based flow cytometry (reference value: 14.01 +/- 0.86%); type: functional
SW480 [19] = assay: Cell cycle arrest in human SW480 cells assessed as accumulation at S phase at 0.8 uM after 48 hrs by propidium iodide staining-based flow cytometry (reference value: 14.01 +/- 0.86%); type: functional
SW480 [20] = assay: Cell cycle arrest in human SW480 cells assessed as accumulation at G2/M phase at 1.2 uM after 48 hrs by propidium iodide staining-based flow cytometry (reference value: 13.99 +/- 0.35%); type: functional
SW480 [21] = assay: Cell cycle arrest in human SW480 cells assessed as accumulation at G2/M phase at 0.8 uM after 48 hrs by propidium iodide staining-based flow cytometry (reference value: 13.99 +/- 0.35%); type: functional
SW480 [22] = assay: Cell cycle arrest in human SW480 cells assessed as accumulation at G0/G1 phase at 1.2 uM after 48 hrs by propidium iodide staining-based flow cytometry (reference value: 72.00 +/- 4.30%); type: functional

Row | SMILES | pIC50 (MCF7 [1]) | pIC50 [2] | pIC50 (SW480 [3]) | Ratio IC50 [4] | Ratio IC50 (SW480 [5]) | Ratio IC50 (HeLa [6]) | Ratio IC50 (HEp-2 [7]) | pIC50 (HeLa [8]) | Ratio IC50 [9] | pIC50 (HEp-2 [10]) | pIC50 [11] | Ratio IC50 (MCF7 [12]) | also measured
1 | Cc1nnc(SCc2coc3ccccc3c2=O)o1 | 5.34 | 5.92 | 6.10 | 6.6 | 2.3 | 0.7 | 33.9 | 5.85 | 8.3 | 5.42 | 5.46 | 0.5 | 
2 | Cc1nnc(SCc2coc3ccccc3c2=O)s1 | 5.17 | 6.20 | 6.00 | 6.6 | 2.3 | 0.7 | 33.9 | 5.64 | 8.3 | 5.54 | 6.37 | 0.5 | Activity (SW480 [13]): 18.27%; Activity (SW480 [14]): Dose-dependent effect; Activity (SW480 [15]): 62.5%; Activity (SW480 [16]): 54.99%; Activity (SW480 [17]): 26.74%; Activity (SW480 [18]): 19.13%; Activity (SW480 [19]): 15.47%; Activity (SW480 [20]): 38.03%; Activity (SW480 [21]): 22.03%; Activity (SW480 [22]): 42.84%
3 | O=c1c(CSc2cc(=O)c3ccccc3s2)coc2ccccc12 | 5.27 | 5.77 | 5.44 | 6.6 | 2.3 | 0.7 | 33.9 | 5.59 | 8.3 | 5.85 | 5.55 | 0.5 | 
4 | COC(=O)Nc1ccc2c(CSc3nc(C)cc(C)n3)cc(=O)oc2c1 | 5.00 | 4.72 | 4.88 |  |  |  |  | 4.84 |  | 5.10 | 5.09 |  | 
5 | Cc1cc(O)cc2oc(=O)cc(CSc3nc4ccccc4s3)c12 | < 4.60 | < 4.60 | < 4.60 |  |  |  |  | < 4.60 |  | < 4.60 | < 4.60 |  | 
6 | Cc1cc(C)n2nc(SCn3cnc4ccccc4c3=O)nc2n1 | < 4.60 | < 4.60 | < 4.60 |  |  |  |  | < 4.60 |  | < 4.60 | < 4.60 |  | 
7 | Cc1nnc(SCc2cc(=O)c3ccccc3o2)s1 | < 4.60 | < 4.60 | < 4.60 |  |  |  |  | < 4.60 |  | < 4.60 | < 4.60 |  | 
8 | Cc1cc(C)n2nc(SCc3cc(=O)c4ccccc4o3)nc2n1 | < 4.60 | < 4.60 | < 4.60 |  |  |  |  | < 4.60 |  | < 4.60 | < 4.60 |  | 
9 | Cc1cc(C)n2nc(SCc3nnc(SCn4cnc5c(Cl)cccc5c4=O)s3)nc2n1 | < 4.60 | < 4.60 | < 4.60 |  |  |  |  | < 4.60 |  | < 4.60 | < 4.60 |  | 
